Data set [1] concerns the target porcine TASK-1 (Sus scrofa, UniProt A0A286ZMZ4). Nature of the data set: TASK-1 current inhibition, voltage clamp in Xenopus laevis oocytes (porcine channel). Type of data set: cell-based. The settings on record: FIG. 1A. The source says:
FIG. 1: Inhibitory effects of doxapram and ketodoxapram on TASK-1 K-ion channels, recorded by voltage-clamp measurements in Xenopus laevis oocytes. A) Concentration-effect curve for doxapram on porcine TASK-1; B) Concentration-effect curve for doxapram on human TASK-1; C) Concentration-effect curve for ketodoxapram on human TASK-1; […] E) Inhibition of TASK-1 by doxapram, ketodoxapnram, and mixtures thereof. Concentration-response curves for ketodoxapram and doxapram. TASK-1 current inhibition was recorded by voltage clamp measurements in Xenopus laevis oocytes according to standard protocols.

Data set [2] concerns atrial fibrillation (AF) in humans. Nature of the data set: Cardioversion of atrial fibrillation in humans. Type of data set: in vivo, human. The settings on record: injection via peripheral venous catheter, dose adapted to body weight. As to the method: For cardioversion of atrial fibrillation (AF) in humans, doxapram can be injected via a peripheral venous catheter. The dose will be adapted to the body weight of the patient. Cardioversion is achieved within a few minutes (<30 minutes). The ECG of the patient is continuously monitored to detect the presence of atrial fibrillation (AF) or successful cardioversion. In case of an unsuccessful cardioversion, a second dose can be applied. If AF is present after applying the second dose, a conventional electrical cardioversion can be performed. To prevent AF episodes, patients can receive repeated a maintenance doses adapted to the body weight for oral or intravenous application.

The nature of data set [3]: Pharmacokinetics in a horse after three intravenous doses of doxapram. The class given is in vivo. The settings on record: FIG. 11. As to the method:
FIG. 11: Pharmacokinetics of doxapram and its metabolite ketodoxapram in a horse after three intravenous administrations of doxapram.
Three intravenous doses of doxapram were administered to a horse.

Data set [4] deals with TASK-1 (Homo sapiens, UniProt O14649). Kind of data set: TASK-1 current inhibition, patch-clamp in human atrial cardiomyocytes. The settings on record: cardiomyocytes from heart auricles of patients with sinus rhythm, FIG. 2. More on the design: human atrial cardiomyocytes isolated from heart auricles of patients with sinus rhythm; endogenous in cells; host or cells: human atrial cardiomyocytes from heart auricles of patients with sinus rhythm. The class given is cell-based. The source says:
FIG. 2: Effects of ketodoxapram and doxapram in human atrial cardiomyocytes recorded by voltage-clamp measurements.

Sequence of TASK-1 (O14649 whole entry): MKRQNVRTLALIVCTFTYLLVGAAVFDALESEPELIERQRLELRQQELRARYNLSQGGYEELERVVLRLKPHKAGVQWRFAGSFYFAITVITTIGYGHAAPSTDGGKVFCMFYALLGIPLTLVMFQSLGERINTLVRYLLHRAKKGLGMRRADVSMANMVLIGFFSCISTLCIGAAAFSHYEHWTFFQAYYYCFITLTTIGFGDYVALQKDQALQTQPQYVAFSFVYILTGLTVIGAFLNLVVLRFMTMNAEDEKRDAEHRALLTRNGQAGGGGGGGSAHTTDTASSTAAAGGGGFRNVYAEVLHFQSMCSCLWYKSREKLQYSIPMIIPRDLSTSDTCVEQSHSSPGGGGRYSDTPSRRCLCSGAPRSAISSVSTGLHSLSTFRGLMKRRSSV
Sequence of porcine TASK-1 (A0A286ZMZ4 1-401): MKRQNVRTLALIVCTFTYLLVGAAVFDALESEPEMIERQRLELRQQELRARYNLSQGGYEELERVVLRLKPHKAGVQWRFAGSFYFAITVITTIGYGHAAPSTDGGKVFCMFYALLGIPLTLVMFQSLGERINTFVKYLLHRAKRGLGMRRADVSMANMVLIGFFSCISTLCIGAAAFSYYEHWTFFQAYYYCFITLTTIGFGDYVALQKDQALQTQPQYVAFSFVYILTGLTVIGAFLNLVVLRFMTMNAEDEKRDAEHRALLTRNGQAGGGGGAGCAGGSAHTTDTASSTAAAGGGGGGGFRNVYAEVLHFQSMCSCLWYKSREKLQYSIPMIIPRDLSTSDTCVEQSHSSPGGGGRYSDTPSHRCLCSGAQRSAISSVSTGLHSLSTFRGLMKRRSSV

With `CCN1CC(CCN2CCOCC2)C(c2ccccc2)(c2ccccc2)C1=O` (centres unmarked) [doxapram, 1-ethyl-4-(2-morpholin-4-ylethyl)-3,3-diphenyl-pyrrolidin-2-one], the concentration for half-maximal inhibition (IC50) in data set [1] came out at 1 µM. In addition, the Time to cardioversion in data set [2] was less than 30 min.

On to `CCN1CC(CCN2CCOCC2=O)C(c2ccccc2)(c2ccccc2)C1=O` (centres unmarked) [ketodoxapram, 4-(2-(1-ethyl-5-oxo-4,4-diphenyl-3-pyrrolidinyl)ethyl)-3-morpholinone], for which, in data set [3], the “Initial metabolite accumulation phase” value lay in the range of 4 to 5 days and the “Plasma concentration as percentage of parent compound doxapram” value is “about 10%”. Moreover, the “TASK-1 inhibition compared with doxapram” value in data set [4] is listed as “significantly stronger than inhibition by doxapram”.

The values above are taken from patent publication US20210308103A1, “TASK-1 INHIBITORS FOR TREATMENT OF ATRIAL ARRHYTHMIAS” (Universität Heidelberg, priority 2018, published 2021).
